Test results from PMC8667045, “Into Deep Water: Optimizing BCL6 Inhibitors by Growing into a Solvated Pocket” (Journal of Medicinal Chemistry, 2021).
≈ marks a conversion by molar mass, not a printed value. Where “and” joins values, the source holds several entries; their conditions need not be identical. Equal values may be shown once. Read-outs that look alike come from different tables or passages of the source.

Key:
BCL6 BTB domain [1] = biological target: T1, BCL6 BTB domain (Homo sapiens, UniProt P41182); experiment: biochemical; conditions: for BCL6 TR-FRET pIC50 mean: mean of n replicates
Description: Supplementary experimental: protein production, purification and crystallography
3C protease cleavage site.
used without cleaving the tag, as a 6His was needed to bind to the anti-6His-Terbium antibody. For
For both plasmid constructs described above, transformed BL21-AI E. coli cells were grown in LB
carried out at 18 °C for 18 hours. Cells were harvested by centrifugation (5500 g for 30 minutes at 4
oC) and stored at -80 °C.
Cells were re-suspended in a buffer composed of 20 mM Tris pH 8, 250 mM NaCl, 1 mM MgCl2, 0.5
Cells were lysed by sonication followed by centrifugation at 21,000 g for 45 minutes at 4 °C. […]
The final protein was assessed for purity
and molar mass by SDS-PAGE and high-resolution mass spectrometry, respectively.
(§1) directly eluted from the HisTrap FF column without HRV-3C treatment, and submitted to Superdex75
gel filtration as described above. […]
2. Supplementary experimental: biological assay conditions
IC50 values were determined using
a sigmoidal four-parameter logistic fit equation.

NMR solubility assay = assay type: physicochemical; conditions: HEPES buffer, 5% DMSO, room temperature
Description: 3. Supplementary experimental: physicochemical assays
The plate was then sealed and incubated at room temperature for 20 hours, without shaking. The plate was centrifuged again for 1 minute at […]
spectrometer equipped with a 5 mm TCI-CryoProbe. […]
deuterated solvent. […] All NMR data were acquired at the […]
contained 16k time-domain data points. Relaxation delay was set to 20 sec. […]

[2] = PAMPA passive permeability pH 7.4; conditions: for PAMPA7.4: pH 7.4, passive permeability Pe; for Papp: PAMPA, pH 7.4
HPLC solubility assay = assay type: physicochemical; conditions: PBS buffer, PBS pH 7.4, 1% DMSO, room temperature
Description: 3. Supplementary experimental: physicochemical assays […]
3.2 HPLC solubility assay
DMSO. Following shaking of the suspension on a Bohdan Shaker at 500 rpm for 2 hours at room […]
200 µL of the supernatant was transferred to a 2 mL Agilent vial containing 50 µL of DMSO (Sigma […]
detection using an external standard which was prepared by pipetting 10 µL of the same batch of […]
The detail of the HPLC method is as following: chromatographic separation at 30°C is carried out over a 5 minute gradient elution method from 90:10 to 10:90 water:methanol (both modified with 0.1% formic acid) at a flow rate of 1.5 mL/min. Calibration curve is prepared by injecting 0.5, 2.5, and 5 µL of compound external standard.
62.5 µL of compound solubility sample.

BCL6 BTB domain [3] = biological target: T1, BCL6 BTB domain; experiment: Rapid X-ray screen: ligand density in extended pocket of BCL6 BTB domain; design: made in house; host or cells: E. coli BL21-AI; conditions: crystals soaked with compound
Excerpt: Furthermore, we speculated that these represent better starting points since the substituent can be modified further to derive additional interactions and more completely fill the extended pocket. […] Instead, we just checked for the presence of ligand density and, in particular, for electron density in the extended pocket.
as §1
gel filtration as described above.
NH2. A stock solution of WVIP peptide at 100 mM in 100 % DMSO was added to a 2 mg/mL solution
This mixture was then concentrated to a final
protein concentration of 4 mg/mL using a centrifugal concentrator with a 3 kDa molecular weight
complex plus 1 μL of a crystallisation solution consisting of 1 M K 2HPO4, 0.7 M NaH2PO4, 75 mM
drops, followed by 10-120 minutes incubation. Crystals were then cryo-protected in a solution
composed of the crystallisation reagent supplemented with 30 % ethylene glycol and cryo-cooled in
concentrated to a final protein concentration of 10 mg/mL using a centrifugal concentrator with a 3
kDa molecular weight cut-off. Crystals were grown at 18 °C in hanging drops composed of 1.5 μL of
and 0.80 M Na/K Tartrate, against 300 μL of crystallisation solution.
and compounds were soaked as described above for the other construct. Crystals were then cryo-
protected in a solution composed of the crystallisation reagent supplemented with 30 % ethylene
glycol and cryo-cooled in liquid nitrogen.
1.5 Crystallographic data collection, processing and refinement
X-ray data were collected at Diamond Light Source, Harwell campus, Oxfordshire, UK, on beamlines
Research, London, UK, on a Rigaku FRX-AFC11-VariMax Cu-VHF-Pilatus300K. Crystals obtained with […]

Measured logD7.4 = assay type: physicochemical; conditions: pH 7.4
[4] = TR-FRET IC50 individual replicates, single replicates, italic values used 10nM BCL6, otherwise 1nM BCL6
[5] = read-out: BCL6 TR-FRET Geo Mean IC50, geometric mean of n replicates, supplement
[6] = read-out: TR-FRET IC50, tables and figures
[7] = read-out: TR-FRET IC50 individual replicates, single replicates, italic values used 10nM BCL6, otherwise 1nM BCL6

SMILES | IC50 (BCL6 BTB domain [1]; [4]) | BCL6 TR-FRET pIC50 mean (BCL6 BTB domain [1]) | IC50 (BCL6 BTB domain [1]; [5]) | IC50 (BCL6 BTB domain [1]; [6]) | IC50 (BCL6 BTB domain [1]; [7]) | solubility at 20 h (NMR solubility assay) [µM] | PAMPA7.4 [2] | solubility at 2 h (HPLC solubility assay) [µM] | Ligand density in extended pocket (BCL6 BTB domain [3]) | Papp [2] [×10⁻⁶ cm/s] | logD (Measured logD7.4)
Cc1cnc(C(C)Nc2cc(=O)n(C)c3ccc(Nc4ccnc(Cl)c4C#N)cc23)nc1 (stereo not shown) [Compound 24a, 2-Chloro-4-((1-methyl-4-((1-(5-methylpyrimidin-2-yl)ethyl)amino)-2-oxo-1,2-dihydroquinolin-6-yl)amino)nicotinonitrile] | 60 nM and 90 nM | 7.14 and 7.136 | 70 nM and 73.1 nM | 73 nM | 70 nM | 31 (≈ 13.8 µg/mL) | 5.6 x10^-6 cms^-1 | – | – | – | –
Cn1c(=O)ccc2cc(Nc3ccnc(Cl)c3C#N)ccc21 [Compound 2, 2-Chloro-4-((1-methyl-2-oxo-1,2-dihydroquinolin-6-yl)amino)nicotinonitrile] | 2280 nM and 4290 nM and 4070 nM and 1380 nM | 5.57 and 5.565 | 2720 nM | 2700 nM and 2720 nM | – | – | – | 12 (≈ 3.73 µg/mL) | – | – | –
Cc1nnc(C(C)Nc2cc(=O)n(C)c3ccc(Nc4ccnc(Cl)c4C#N)cc23)o1 (stereo not shown) [Compound 13c, 2-Chloro-4-((1-methyl-4-((1-(5-methyl-1,3,4-oxadiazol-2-yl)ethyl)amino)-2-oxo-1,2-dihydroquinolin-6-yl)amino)nicotinonitrile] | 1070 nM and 680 nM | 6.06 and 6.059 | 872 nM | 870 nM | 690 nM and 1180 nM and 840 nM | 247 (≈ 108 µg/mL) | <0.2 x10^-6 cms^-1 | – | – | – | –
CC(Nc1cc(=O)n(C)c2ccc(Nc3ccnc(Cl)c3C#N)cc12)c1ncco1 (stereo not shown) [Compound 13b, 2-Chloro-4-((1-methyl-4-((1-(oxazol-2-yl)ethyl)amino)-2-oxo-1,2-dihydroquinolin-6-yl)amino)nicotinonitrile] | – | – | – | – | – | – | 1.0 x10^-6 cms^-1 | 2.8 (≈ 1.18 µg/mL) | – | – | –
N#Cc1c(Nc2ccc3[nH]c(=O)cc(N4CCOCC4)c3c2)ccnc1Cl [Compound 8d, 2-Chloro-4-((4-morpholino-2-oxo-1,2-dihydroquinolin-6-yl)amino)nicotinonitrile] | 2660 nM and 2560 nM and 1470 nM | 5.67 and 5.672 | 2130 nM | 2130 nM | 2100 nM and 2080 nM | – | – | – | No | – | –
CNC(=O)[C@@H](C)Nc1cc(=O)[nH]c2ccc(Nc3ccnc(Cl)c3C#N)cc12 [Compound 12b, (R)-2-((6-((2-Chloro-3-cyanopyridin-4-yl)amino)-2-oxo-1,2-dihydroquinolin-4-yl)amino)-N-methylpropanamide] | 300 nM (2×) and 220 nM and 280 nM and 190 nM | 6.60 and 6.596 | 253 nM | 250 nM | 240 nM and 260 nM | 64 (≈ 25.4 µg/mL) | no measurable passive permeability | – | – | < 0.2 | –
CN(C)c1cc(=O)[nH]c2ccc(Nc3ccnc(Cl)c3C#N)cc12 [Compound 8a, 2-Chloro-4-((4-(dimethylamino)-2-oxo-1,2-dihydroquinolin-6-yl)amino)nicotinonitrile] | 7010 nM and 4460 nM | 5.25 and 5.254 | 5570 nM | 5570 nM | 5520 nM | – | – | – | No | – | –
Cn1cc(-c2cc(=O)[nH]c3ccc(Nc4ccnc(Cl)c4C#N)cc23)cn1 [Compound 8e, 2-Chloro-4-((4-(1-methyl-1H-pyrazol-4-yl)-2-oxo-1,2-dihydroquinolin-6-yl)amino)nicotinonitrile] | 1520 nM and 2190 nM | 5.74 and 5.739 | 1820 nM | 1820 nM | – | – | – | – | Yes | – | –
CCNc1cc(=O)[nH]c2ccc(Nc3ccnc(Cl)c3C#N)cc12 [Compound 8f, 2-Chloro-4-((4-(ethylamino)-2-oxo-1,2-dihydroquinolin-6-yl)amino)nicotinonitrile] | 1660 nM and 680 nM and 1950 nM and 1130 nM and 1050 nM and 1910 nM | 5.883 | 1310 nM | 1310 nM | – | – | – | – | Yes | – | –
CNC(=O)CNc1cc(=O)[nH]c2ccc(Nc3ccnc(Cl)c3C#N)cc12 [Compound 12e, 2-((6-((2-Chloro-3-cyanopyridin-4-yl)amino)-2-oxo-1,2-dihydroquinolin-4-yl)amino)-N-methylacetamide] | 19900 nM and 74100 nM and 10200 nM and 22400 nM | 4.62 and 4.623 | 23800 nM | 23800 nM | 22800 nM | – | – | 35 (≈ 13.4 µg/mL) | – | – | –
CNC(=O)C(C)Nc1cc(=O)[nH]c2ccc(Nc3ccnc(Cl)c3C#N)cc12 (stereo not shown) [Compound 12a, 2-((6-((2-Chloro-3-cyanopyridin-4-yl)amino)-2-oxo-1,2-dihydroquinolin-4-yl)amino)-N-methylpropanamide] | 620 nM and 490 nM and 580 nM and 510 nM and 660 nM and 470 nM and 460 nM and 500 nM and 740 nM and 480 nM and 650 nM | 6.26 and 6.258 | 552 nM | 550 nM | – | – | – | 37 (≈ 14.7 µg/mL) | – | < 0.2 | –
N#Cc1c(Nc2ccc3[nH]c(=O)cc(N4CCCCC4)c3c2)ccnc1Cl [Compound 8b, 2-Chloro-4-((2-oxo-4-(piperidin-1-yl)-1,2-dihydroquinolin-6-yl)amino)nicotinonitrile] | 1570 nM and 1240 nM and 920 nM and 540 nM and 2320 nM | 5.93 and 5.929 | 1180 nM | 1180 nM | – | – | – | – | No | – | –
CC(Nc1cc(=O)n(CC2CCC2)c2ccc(Nc3ccnc(Cl)c3C#N)cc12)c1ncccn1 (stereo not shown) [Compound 17b, 2-Chloro-4-((1-(cyclobutylmethyl)-2-oxo-4-((1-(pyrimidin-2-yl)ethyl)amino)-1,2-dihydroquinolin-6-yl)amino)nicotinonitrile] | 250 nM and 210 nM and 640 nM | 6.49 and 6.489 | 324 nM | 320 nM | – | 32 (≈ 15.6 µg/mL) | 21 x10^-6 cms^-1 | – | – | – | –
CN1CCN(c2cc(=O)[nH]c3ccc(Nc4ccnc(Cl)c4C#N)cc23)CC1 [Compound 8c, 2-Chloro-4-((4-(4-methylpiperazin-1-yl)-2-oxo-1,2-dihydroquinolin-6-yl)amino)nicotinonitrile] | 5770 nM and 1240 nM and 2440 nM and 2900 nM | 5.58 and 5.578 | 2640 nM | 2640 nM | 2550 nM | – | – | – | No | – | –
Cn1c(=O)n(C)c2cc(Nc3ccnc(Cl)c3C#N)ccc21 [Compound 1] | – | – | – | – | – | – | – | 16 (≈ 5.02 µg/mL) | – | – | –
CC(Nc1cc(=O)n(CC2CC2)c2ccc(Nc3ccnc(Cl)c3C#N)cc12)c1ncccn1 (stereo not shown) [Compound 17a, 2-Chloro-4-((1-(cyclopropylmethyl)-2-oxo-4-((1-(pyrimidin-2-yl)ethyl)amino)-1,2-dihydroquinolin-6-yl)amino)nicotinonitrile] | 230 nM and 790 nM | 6.38 and 6.379 | 418 nM | 420 nM | 410 nM | 72 (≈ 34 µg/mL) | 8.5 x10^-6 cms^-1 | – | – | – | –
Cn1c(=O)cc(NC(C)(C)c2ncccn2)c2cc(Nc3ccnc(Cl)c3C#N)ccc21 [Compound 13g, 2-Chloro-4-((1-methyl-2-oxo-4-((2-(pyrimidin-2-yl)propan-2-yl)amino)-1,2-dihydroquinolin-6-yl)amino)nicotinonitrile] | – | – | – | – | – | 15 (≈ 6.69 µg/mL) | 1.8 x10^-6 cms^-1 | – | – | – | 1.9
